These results are taken from patent US12575572B2, “Systems, methods, and apparatuses for disinfection and decontamination” (priority 2020, dated 2026).

The assay has as its system Phi6 bacteriophage (surrogate for Coronavirus and Ebola).

`[O][Cl+][O-]` [ClO2, chlorine dioxide]: the “virions recovered from treated coupons” value is given as “no virions were recovered”.
